Laboratory results taken from patent US10167262B2, “Herbicidal substituted 3-arylpyrazoles” (FMC CORPORATION, priority 2014, dated 2019).

Key:
Assay in all cases: Test E pre-/postemergence greenhouse test, plant response rating 0-100
Assay type in all cases: in vivo
[1] = tested on: waterhemp (common waterhemp, Amaranthus rudis); details: Postemergence, scale 0 to 100
How it was run: (§1)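 Seeds sown in silt loam were treated preemergence, and seedlings in peat-based potting medium were treated postemergence at the 1- to 4-leaf stage (2-18 cm tall). Test chemicals were formulated in a non-phytotoxic solvent mixture with surfactant. After 14-21 days in the greenhouse, injury was rated visually against untreated controls (0 = no effect, 100 = complete control).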

[2] = tested on: Brazilian crabgrass (Digitaria horizontalis); details: Postemergence, scale 0 to 100
How it was run: as §1

[3] = tested on: palmer pigweed (Amaranthus palmeri); details: Postemergence, scale 0 to 100
How it was run: as §1

[4] = tested on: fall panicum (Panicum dichotomiflorum); details: Postemergence, scale 0 to 100
How it was run: as §1

[5] = tested on: barnyardgrass (Echinochloa crus-galli); details: Postemergence, scale 0 to 100
How it was run: as §1

[6] = tested on: corn (Zea mays); details: Postemergence, scale 0 to 100
How it was run: as §1

[7] = tested on: sandbur (southern sandbur, Cenchrus echinatus); details: Postemergence, scale 0 to 100
How it was run: as §1

[8] = tested on: soybean (Glycine max); details: Postemergence, scale 0 to 100
How it was run: as §1

[9] = tested on: arrowleaf sida (Sida rhombifolia); details: Postemergence
How it was run: as §1

[10] = tested on: wild poinsettia (Euphorbia heterophylla); details: Postemergence, scale 0 to 100
How it was run: as §1

[11] = 500 g ai/ha, scale 0 to 100 (0 no effect, 100 complete control)

SMILES: CCn1cc(C(=O)c2cccs2)c(-c2cc(Cl)cc(Cl)c2)n1 [Compound 18]
- Plant response rating, Waterhemp ([1]; 31 g ai/ha): 50
- Plant response rating, Waterhemp ([1]; 62 g ai/ha): 75
- Plant response rating, Waterhemp ([1]; 125 g ai/ha): 85
- Plant response rating, Waterhemp ([1]; 250 g ai/ha): 90
- Plant response rating, Waterhemp ([1]; 500 g ai/ha): 95
- Plant response rating, Crabgrass, Brazil ([2]; 31 g ai/ha): 0
- Plant response rating, Crabgrass, Brazil ([2]; 62 g ai/ha): 5
- Plant response rating, Crabgrass, Brazil ([2]; 125 g ai/ha): 15
- Plant response rating, Crabgrass, Brazil ([2]; 250 g ai/ha): 20
- Plant response rating, Crabgrass, Brazil ([2]; 500 g ai/ha): 20
- Plant response rating, Pigweed, Palmer ([3]; 31 g ai/ha): 90
- Plant response rating, Pigweed, Palmer ([3]; 62 g ai/ha): 90
- Plant response rating, Pigweed, Palmer ([3]; 125 g ai/ha): 90
- Plant response rating, Pigweed, Palmer ([3]; 250 g ai/ha): 98
- Plant response rating, Pigweed, Palmer ([3]; 500 g ai/ha): 98
- Plant response rating, Panicum, Fall ([4]; 31 g ai/ha): 0
- Plant response rating, Panicum, Fall ([4]; 62 g ai/ha): 0
- Plant response rating, Panicum, Fall ([4]; 125 g ai/ha): 0
- Plant response rating, Panicum, Fall ([4]; 250 g ai/ha): 0
- Plant response rating, Panicum, Fall ([4]; 500 g ai/ha): 10
- Plant response rating, Barnyardgrass ([5]; 31 g ai/ha): 0
- Plant response rating, Barnyardgrass ([5]; 62 g ai/ha): 10
- Plant response rating, Barnyardgrass ([5]; 125 g ai/ha): 20
- Plant response rating, Barnyardgrass ([5]; 250 g ai/ha): 25
- Plant response rating, Barnyardgrass ([5]; 500 g ai/ha): 25
- Plant response rating, Corn ([6]; 31 g ai/ha): 0
- Plant response rating, Corn ([6]; 62 g ai/ha): 0
- Plant response rating, Corn ([6]; 125 g ai/ha): 0
- Plant response rating, Corn ([6]; 250 g ai/ha): 0
- Plant response rating, Corn ([6]; 500 g ai/ha): 10
- Plant response rating, Sandbur ([7]; 31 g ai/ha): 0
- Plant response rating, Sandbur ([7]; 62 g ai/ha): 0
- Plant response rating, Sandbur ([7]; 125 g ai/ha): 0
- Plant response rating, Sandbur ([7]; 250 g ai/ha): 15
- Plant response rating, Sandbur ([7]; 500 g ai/ha): 20
- Plant response rating, Soybean ([8]; 31 g ai/ha): 0
- Plant response rating, Soybean ([8]; 62 g ai/ha): 0
- Plant response rating, Soybean ([8]; 125 g ai/ha): 10
- Plant response rating, Soybean ([8]; 250 g ai/ha): 20
- Plant response rating, Soybean ([8]; 500 g ai/ha): 30
- Plant response rating, Arrowleaf Sida ([9]; 31 g ai/ha, scale 0 to 100): 60
- Plant response rating, Arrowleaf Sida ([9]; 62 g ai/ha, scale 0 to 100): 70
- Plant response rating, Arrowleaf Sida ([9]; 125 g ai/ha, scale 0 to 100): 80
- Plant response rating, Arrowleaf Sida ([9]; 250 g ai/ha, scale 0 to 100): 80
- Plant response rating, Arrowleaf Sida [9, 11]: 85
- Plant response rating, Poinsettia, Wild ([10]; 31 g ai/ha): 5
- Plant response rating, Poinsettia, Wild ([10]; 62 g ai/ha): 20
- Plant response rating, Poinsettia, Wild ([10]; 125 g ai/ha): 30
- Plant response rating, Poinsettia, Wild ([10]; 250 g ai/ha): 30
- Plant response rating, Poinsettia, Wild ([10]; 500 g ai/ha): 40

SMILES: ON=C(c1ccccc1)c1c[nH]nc1-c1cc(Cl)cc(Cl)c1 [Compound 50]
- Plant response rating, Waterhemp ([1]; 31 g ai/ha): 80
- Plant response rating, Waterhemp ([1]; 125 g ai/ha): 90
- Plant response rating, Waterhemp ([1]; 250 g ai/ha): 100
- Plant response rating, Waterhemp ([1]; 500 g ai/ha): 100
- Plant response rating, Crabgrass, Brazil ([2]; 31 g ai/ha): 0
- Plant response rating, Crabgrass, Brazil ([2]; 62 g ai/ha): 0
- Plant response rating, Crabgrass, Brazil ([2]; 125 g ai/ha): 0
- Plant response rating, Crabgrass, Brazil ([2]; 250 g ai/ha): 0
- Plant response rating, Crabgrass, Brazil ([2]; 500 g ai/ha): 0
- Plant response rating, Pigweed, Palmer ([3]; 31 g ai/ha): 65
- Plant response rating, Pigweed, Palmer ([3]; 62 g ai/ha): 75
- Plant response rating, Pigweed, Palmer ([3]; 125 g ai/ha): 80
- Plant response rating, Pigweed, Palmer ([3]; 250 g ai/ha): 98
- Plant response rating, Pigweed, Palmer ([3]; 500 g ai/ha): 98
- Plant response rating, Panicum, Fall ([4]; 31 g ai/ha): 0
- Plant response rating, Panicum, Fall ([4]; 62 g ai/ha): 0
- Plant response rating, Panicum, Fall ([4]; 125 g ai/ha): 0
- Plant response rating, Panicum, Fall ([4]; 250 g ai/ha): 0
- Plant response rating, Panicum, Fall ([4]; 500 g ai/ha): 0
- Plant response rating, Barnyardgrass ([5]; 31 g ai/ha): 0
- Plant response rating, Barnyardgrass ([5]; 62 g ai/ha): 0
- Plant response rating, Barnyardgrass ([5]; 125 g ai/ha): 0
- Plant response rating, Barnyardgrass ([5]; 250 g ai/ha): 0
- Plant response rating, Barnyardgrass ([5]; 500 g ai/ha): 10
- Plant response rating, Corn ([6]; 31 g ai/ha): 0
- Plant response rating, Corn ([6]; 62 g ai/ha): 0
- Plant response rating, Corn ([6]; 125 g ai/ha): 0
- Plant response rating, Corn ([6]; 250 g ai/ha): 0
- Plant response rating, Corn ([6]; 500 g ai/ha): 0
- Plant response rating, Sandbur ([7]; 31 g ai/ha): 0
- Plant response rating, Sandbur ([7]; 62 g ai/ha): 0
- Plant response rating, Sandbur ([7]; 125 g ai/ha): 0
- Plant response rating, Sandbur ([7]; 250 g ai/ha): 0
- Plant response rating, Sandbur ([7]; 500 g ai/ha): 0
- Plant response rating, Soybean ([8]; 31 g ai/ha): 0
- Plant response rating, Soybean ([8]; 62 g ai/ha): 0
- Plant response rating, Soybean ([8]; 125 g ai/ha): 0
- Plant response rating, Soybean ([8]; 250 g ai/ha): 0
- Plant response rating, Soybean ([8]; 500 g ai/ha): 0
- Plant response rating, Arrowleaf Sida ([9]; 31 g ai/ha, scale 0 to 100): 50
- Plant response rating, Arrowleaf Sida ([9]; 62 g ai/ha, scale 0 to 100): 50
- Plant response rating, Arrowleaf Sida ([9]; 125 g ai/ha, scale 0 to 100): 60
- Plant response rating, Arrowleaf Sida ([9]; 250 g ai/ha, scale 0 to 100): 70
- Plant response rating, Arrowleaf Sida [9, 11]: 80
- Plant response rating, Poinsettia, Wild ([10]; 31 g ai/ha): 0
- Plant response rating, Poinsettia, Wild ([10]; 62 g ai/ha): 0
- Plant response rating, Poinsettia, Wild ([10]; 125 g ai/ha): 0
- Plant response rating, Poinsettia, Wild ([10]; 250 g ai/ha): 20
- Plant response rating, Poinsettia, Wild ([10]; 500 g ai/ha): 30
